What was measured:
[1] = molecular target: SMARCA4 (Homo sapiens (Human), UniProt P51532); assay: SMARCA4 HiBiT degradation assay in HeLa cells; format: cell-based; conditions: 18 hours; for DC50: read-out: DC50 (SM4-HeLa) SMARCA4 degradation potency; for Dmax: HeLa, read-out: Dmax % (SM4-HeLa) maximum SMARCA4 degradation within the concentrations tested
Method: (§1) HiBiT peptide knock-in of SMARCA2 in LgBiT expressing HEK293T cells was performed by CRISPR-mediated tagging system as described Promega. The homozygous HiBiT knock-in on c-terminus SMARCA2 was confirmed by sanger sequence. SMARCA2-HiBiT knock-in Hela monoclonal cell (CS302366) and SMARCA4-HiBiT knock-in Hela monoclonal cell (CS3023226) were purchased from Promega. The heterozygous HiBiT-knock-in was confirmed by sanger sequence in both SMARCA2-HiBiT and SMARCA4-HiBiT monoclonal cells.
(§2) Dispense 10 μL aliquot of prepared Hela-SMARCA2-HiBiT or Hela-SMARCA4-HiBiT cells (1:1 ratio of cells:Trypan Blue (#1450013, Bio-Rad)) onto cell counting slide (#145-0011, Bio-Rad) and obtain cell density and cell viability using cell counter (TC20, Bio-Rad). Remove appropriate volume of resuspended cells from culture flask to accommodate 2500 cells/well @ 20 μL/well. Transfer Hela-HiBiT cells to 50 ml conical (#430290, Corning). Spin down at 1000 rpm for 5 min using tabletop centrifuge (SPINCHRON 15, Beckman). Discard supernatant and resuspend cell pellet in modified EMEM (#30-2003, ATCC) cell culture media containing 10% FBS (F2422-500ML, Sigma), and 1×Penicillin/Streptomycin (200 g/1) (30-002-CI, Corning) to a cell density of 125,000 cells/ml. Dispense 20 μL of resuspended Hela-HiBit cells per well in 384-well TC treated plate (#12-565-343, Thermo Scientific) using standard cassette (#50950372, Thermo Scientific) on Multidrop Combi (#5840310, Thermo Scientific) inside laminar flow cabinet. Dispense test compounds onto plates using digital liquid dispenser (D300E, Tecan). Incubate plates in humidified tissue culture incubator @37° C. for 18 hours. Add 20 ul of prepared Nano-Glo® HiBiT Lytic detection buffer (N3050, Promega) to each well of 384-well plate using small tube cassette (#24073295, Thermo Scientific) on Multidrop Combi, incubate @ RT for 30-60 min. Read plates on microplate reader (Envision 2105, PerkinElmer) using 384 well Ultra-Sensitive luminescence mode. Raw data files and compound information reports are swept into centralized data lake and deconvoluted using automated scripts designed by TetraScience, Inc. Data analysis, curve-fitting and reporting done in Dotmatics Informatics Suite using Screening Ultra module.

[2] = molecular target: SMARCA2 (Homo sapiens (Human), UniProt P51531); assay: SMARCA2 HiBiT degradation assay in HeLa cells; format: cell-based; conditions: 18 hours; for DC50: read-out: DC50 (SM2-HeLa) SMARCA2 degradation potency; for Dmax: read-out: Dmax % (SM2-HeLa) maximum SMARCA2 degradation within the concentrations tested
Method: as §1, §2

Chain of SMARCA2 (P51531 whole entry): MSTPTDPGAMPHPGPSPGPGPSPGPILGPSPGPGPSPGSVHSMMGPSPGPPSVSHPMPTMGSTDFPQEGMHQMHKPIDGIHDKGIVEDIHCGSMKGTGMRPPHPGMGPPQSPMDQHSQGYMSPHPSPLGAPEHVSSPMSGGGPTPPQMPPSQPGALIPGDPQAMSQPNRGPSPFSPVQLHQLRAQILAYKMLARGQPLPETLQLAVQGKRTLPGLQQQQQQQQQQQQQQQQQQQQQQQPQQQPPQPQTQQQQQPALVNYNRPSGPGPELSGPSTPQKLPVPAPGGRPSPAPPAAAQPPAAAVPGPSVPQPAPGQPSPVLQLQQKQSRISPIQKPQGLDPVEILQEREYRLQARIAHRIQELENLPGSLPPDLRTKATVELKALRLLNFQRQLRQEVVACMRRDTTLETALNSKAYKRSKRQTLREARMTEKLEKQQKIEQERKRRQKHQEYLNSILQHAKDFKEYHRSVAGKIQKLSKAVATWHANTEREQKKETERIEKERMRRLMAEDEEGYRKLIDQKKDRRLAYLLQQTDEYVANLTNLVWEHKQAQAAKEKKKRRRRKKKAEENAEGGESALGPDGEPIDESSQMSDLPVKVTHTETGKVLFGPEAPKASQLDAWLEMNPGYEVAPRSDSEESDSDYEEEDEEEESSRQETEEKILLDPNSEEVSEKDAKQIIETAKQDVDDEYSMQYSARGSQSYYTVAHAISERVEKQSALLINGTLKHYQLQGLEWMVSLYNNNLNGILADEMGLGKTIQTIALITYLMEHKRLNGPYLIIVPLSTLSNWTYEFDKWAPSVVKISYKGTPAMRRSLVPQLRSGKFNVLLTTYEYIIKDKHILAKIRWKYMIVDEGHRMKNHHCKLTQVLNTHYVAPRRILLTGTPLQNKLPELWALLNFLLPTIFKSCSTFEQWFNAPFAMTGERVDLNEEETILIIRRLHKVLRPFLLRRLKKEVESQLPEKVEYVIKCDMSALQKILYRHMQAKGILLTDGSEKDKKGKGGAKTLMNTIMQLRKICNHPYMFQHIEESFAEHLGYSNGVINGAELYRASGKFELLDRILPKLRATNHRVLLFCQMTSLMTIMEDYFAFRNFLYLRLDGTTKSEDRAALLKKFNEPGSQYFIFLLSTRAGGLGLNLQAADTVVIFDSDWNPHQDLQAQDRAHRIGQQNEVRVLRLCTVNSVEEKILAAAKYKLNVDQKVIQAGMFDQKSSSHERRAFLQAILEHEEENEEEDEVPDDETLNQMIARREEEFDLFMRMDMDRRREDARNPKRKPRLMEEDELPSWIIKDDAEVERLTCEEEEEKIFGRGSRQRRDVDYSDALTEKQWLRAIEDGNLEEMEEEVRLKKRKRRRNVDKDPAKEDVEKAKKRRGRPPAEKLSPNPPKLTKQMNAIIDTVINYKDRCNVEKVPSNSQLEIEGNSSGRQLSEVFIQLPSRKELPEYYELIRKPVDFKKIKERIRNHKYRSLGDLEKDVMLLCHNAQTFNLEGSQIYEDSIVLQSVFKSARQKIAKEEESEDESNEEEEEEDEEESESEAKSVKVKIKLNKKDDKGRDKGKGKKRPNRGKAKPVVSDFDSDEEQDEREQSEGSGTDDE
Chain of SMARCA4 (P51532 whole entry): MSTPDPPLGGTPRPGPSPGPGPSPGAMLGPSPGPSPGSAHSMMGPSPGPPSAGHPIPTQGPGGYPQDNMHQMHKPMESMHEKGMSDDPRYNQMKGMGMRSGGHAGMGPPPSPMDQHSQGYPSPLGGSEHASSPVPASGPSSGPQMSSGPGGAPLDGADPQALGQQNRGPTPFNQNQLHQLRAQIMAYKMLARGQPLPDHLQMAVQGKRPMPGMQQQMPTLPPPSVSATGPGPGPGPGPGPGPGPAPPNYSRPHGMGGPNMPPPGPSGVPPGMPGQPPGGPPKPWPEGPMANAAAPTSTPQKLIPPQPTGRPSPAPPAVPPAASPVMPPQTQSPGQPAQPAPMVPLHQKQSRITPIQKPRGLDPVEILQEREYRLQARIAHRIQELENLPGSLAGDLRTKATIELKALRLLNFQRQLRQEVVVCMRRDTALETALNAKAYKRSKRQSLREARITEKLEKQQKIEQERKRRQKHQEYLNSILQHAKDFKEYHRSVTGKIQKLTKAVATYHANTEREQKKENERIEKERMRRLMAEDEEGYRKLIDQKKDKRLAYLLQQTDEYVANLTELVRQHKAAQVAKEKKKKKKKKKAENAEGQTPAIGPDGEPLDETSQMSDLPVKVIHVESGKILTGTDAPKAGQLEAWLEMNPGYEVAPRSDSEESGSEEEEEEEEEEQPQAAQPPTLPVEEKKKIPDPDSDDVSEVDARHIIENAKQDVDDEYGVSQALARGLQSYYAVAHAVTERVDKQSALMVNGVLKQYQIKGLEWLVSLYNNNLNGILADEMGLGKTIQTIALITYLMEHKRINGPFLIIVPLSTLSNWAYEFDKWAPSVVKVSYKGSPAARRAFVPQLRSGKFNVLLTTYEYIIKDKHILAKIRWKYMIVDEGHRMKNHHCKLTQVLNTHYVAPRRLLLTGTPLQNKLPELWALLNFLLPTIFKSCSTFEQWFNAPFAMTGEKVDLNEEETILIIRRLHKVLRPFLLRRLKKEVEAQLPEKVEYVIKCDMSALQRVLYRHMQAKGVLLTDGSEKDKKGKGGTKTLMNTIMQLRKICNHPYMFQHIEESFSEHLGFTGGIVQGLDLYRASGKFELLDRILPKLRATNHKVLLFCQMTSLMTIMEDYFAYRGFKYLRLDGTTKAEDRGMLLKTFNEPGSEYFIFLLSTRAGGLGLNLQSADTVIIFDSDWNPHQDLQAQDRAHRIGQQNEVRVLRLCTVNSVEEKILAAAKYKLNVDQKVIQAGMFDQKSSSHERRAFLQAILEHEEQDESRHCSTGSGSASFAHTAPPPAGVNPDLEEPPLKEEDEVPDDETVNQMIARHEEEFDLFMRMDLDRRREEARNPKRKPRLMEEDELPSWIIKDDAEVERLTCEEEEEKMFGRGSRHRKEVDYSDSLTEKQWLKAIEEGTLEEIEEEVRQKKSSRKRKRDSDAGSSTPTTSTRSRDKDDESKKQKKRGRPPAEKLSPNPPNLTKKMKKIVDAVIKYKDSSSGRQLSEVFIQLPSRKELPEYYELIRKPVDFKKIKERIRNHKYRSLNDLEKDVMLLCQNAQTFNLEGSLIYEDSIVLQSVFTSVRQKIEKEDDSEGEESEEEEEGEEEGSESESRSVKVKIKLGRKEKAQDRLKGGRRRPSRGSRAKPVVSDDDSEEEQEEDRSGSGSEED

Row | SMILES | DC50 [1] [nM] | Dmax [1] [%] | DC50 [2] [nM] | Dmax [2] [%] | Dmax % (SM4-HeLa) maximum SMARCA4 degradation within the concentrations tested [1] | Dmax % (SM2-HeLa) maximum SMARCA2 degradation within the concentrations tested [2]
1 | Cc1ncsc1-c1ccc([C@H](C)NC(=O)[C@@H]2C[C@@H](O)CN2C(=O)[C@@H](c2cc(OCC(=O)N3CCC(N4CCN5c6cc(-c7ccccc7O)nnc6NC[C@H]5C4)C(C)C3)no2)C(C)C)cc1 (single isomer, unassigned) [Example 30] | < 100 | > 75 | < 100 | > 75 | – | –
2 | Cc1ncsc1-c1ccc([C@H](C)NC(=O)[C@@H]2C[C@@H](O)CN2C(=O)[C@@H](c2cc(OCCN3CCCC(N4CCN5c6cc(-c7ccccc7O)nnc6NC[C@H]5C4)C3)no2)C(C)C)cc1 (single isomer, unassigned) [Example 41] | < 100 | > 75 | < 100 | > 75 | – | –
3 | Cc1ncsc1-c1ccc([C@H](C)NC(=O)[C@@H]2C[C@@H](O)CN2C(=O)[C@@H](c2cc(OCCN3CCCC(N4CCN5c6cc(-c7ccccc7O)nnc6NC[C@H]5C4)C3)no2)C(C)C)cc1 (single isomer, unassigned) [Example 42] | < 100 | – | < 100 | – | – | –
4 | Cc1ncsc1-c1ccc([C@H](C)NC(=O)[C@@H]2C[C@@H](O)CN2C(=O)[C@@H](c2cc(O[C@H](C)CN3CCC(N4CCN5c6cc(-c7ccccc7O)nnc6NC[C@H]5C4)C3)no2)C(C)C)cc1 (single isomer, unassigned) [Example 50] | < 100 | > 75 | < 100 | > 75 | – | –
5 | Cc1ncsc1-c1ccc([C@H](C)NC(=O)[C@@H]2C[C@@H](O)CN2C(=O)[C@@H](c2cc(OCCN3CCC(N4CCC(N5CCN6c7cc(-c8ccccc8O)nnc7NC[C@H]6C5)CC4)C3)no2)C(C)C)cc1 (stereo partly drawn) [Example 25, (2S,4R)-4-hydroxy-1-((2R)-2-(3-(2-(3-(4-((S)-2-(2-hydroxyphenyl)-5,6,6a,7,9,10-hexahydro-8H-pyrazino[1′,2′:4,5]pyrazino[2,3-c]pyridazin-8-yl)piperidin-1-yl)pyrrolidin-1-yl)ethoxy)isoxazol-5-yl)-3-methylbutanoyl)-N-((S)-1-(4-(4-methylthiazol-5-yl)phenyl)ethyl)pyrrolidine-2-carboxamide] | 100 to 1000 | 50 to 75 | < 100 | > 75 | – | –
6 | Cc1ncsc1-c1ccc([C@H](C)NC(=O)[C@@H]2C[C@@H](O)CN2C(=O)[C@@H](c2cc(OCCN3CCC(N4CCC(N5CCN6c7cc(-c8ccccc8O)nnc7NC[C@H]6C5)CC4)C3)no2)C(C)C)cc1 (stereo partly drawn) [Example 26, (2S,4R)-4-hydroxy-1-((2R)-2-(3-(2-(3-(4-((S)-2-(2-hydroxyphenyl)-5,6,6a,7,9,10-hexahydro-8H-pyrazino[1′,2′:4,5]pyrazino[2,3-c]pyridazin-8-yl)piperidin-1-yl)pyrrolidin-1-yl)ethoxy)isoxazol-5-yl)-3-methylbutanoyl)-N-((S)-1-(4-(4-methylthiazol-5-yl)phenyl)ethyl)pyrrolidine-2-carboxamide] | 100 to 1000 | – | < 100 | – | – | –
7 | Cc1ncsc1-c1ccc([C@H](C)NC(=O)[C@@H]2C[C@@H](O)CN2C(=O)[C@@H](c2cc(O[C@@H](C)C(=O)N3CCC(N4CCN5c6cc(-c7ccccc7O)nnc6NC[C@H]5C4)CC3)no2)C(C)C)cc1 [Example 27, (2S,4R)-4-hydroxy-1-((R)-2-(3-(((S)-1-(4-((S)-2-(2-hydroxyphenyl)-5,6,6a,7,9,10-hexahydro-8H-pyrazino[1′,2′:4,5]pyrazino[2,3-c]pyridazin-8-yl)piperidin-1-yl)-1-oxopropan-2-yl)oxy)isoxazol-5-yl)-3-methylbutanoyl)N-((S)-1-(4-(4-methylthiazol-5-yl)phenyl)ethyl)pyrrolidine-2-carboxamide] | 100 to 1000 | 50 to 75 | < 100 | > 75 | – | –
8 | Cc1ncsc1-c1ccc([C@H](C)NC(=O)[C@@H]2C[C@@H](O)CN2C(=O)C(c2cc(O[C@H](C)C(=O)N3CCC(N4CCN5c6cc(-c7ccccc7O)nnc6NC[C@H]5C4)C3)no2)C(C)C)cc1 (stereo partly drawn) [Example 28, (2S,4R)-4-hydroxy-1-(2-(3-(((2R)-1-(3-((S)-2-(2-hydroxyphenyl)-5,6,6a,7,9,10-hexahydro-8H-pyrazino[1′,2′:4,5]pyrazino[2,3-c]pyridazin-8-yl)pyrrolidin-1-yl)-1-oxopropan-2-yl)oxy)isoxazol-5-yl)-3-methylbutanoyl)-N-((S)-1-(4-(4-methylthiazol-5-yl)phenyl)ethyl)pyrrolidine-2-carboxamide] | 100 to 1000 | ≤ 50 | < 100 | > 75 | – | –
9 | Cc1ncsc1-c1ccc([C@H](C)NC(=O)[C@@H]2C[C@@H](O)CN2C(=O)C(c2cc(O[C@H](C)C(=O)N3CCC(N4CCN5c6cc(-c7ccccc7O)nnc6NC[C@H]5C4)C3)no2)C(C)C)cc1 (stereo partly drawn) [Example 29, (2S,4R)-4-hydroxy-1-(2-(3-(((2R)-1-(3-((S)-2-(2-hydroxyphenyl)-5,6,6a,7,9,10-hexahydro-8H-pyrazino[1′,2′:4,5]pyrazino[2,3-c]pyridazin-8-yl)pyrrolidin-1-yl)-1-oxopropan-2-yl)oxy)isoxazol-5-yl)-3-methylbutanoyl)-N-((S)-1-(4-(4-methylthiazol-5-yl)phenyl)ethyl)pyrrolidine-2-carboxamide] | 100 to 1000 | – | < 100 | – | – | –

More lines, now with the values ahead:

Row | DC50 [1] [nM] | Dmax [1] [%] | DC50 [2] [nM] | Dmax [2] [%] | Dmax % (SM4-HeLa) maximum SMARCA4 degradation within the concentrations tested [1] | Dmax % (SM2-HeLa) maximum SMARCA2 degradation within the concentrations tested [2] | SMILES
10 | < 100 | – | < 100 | – | A/A (A = Dmax >75%) | A/A (A = Dmax >75%) | Cc1ncsc1-c1ccc([C@H](C)NC(=O)[C@@H]2C[C@@H](O)CN2C(=O)[C@@H](c2cc(O[C@H](C)CN3CCC(N4CCN5c6cc(-c7ccccc7O)nnc6NC[C@H]5C4)C3)no2)C(C)C)cc1 (single isomer, unassigned) [Example 51]
11 | < 100 | > 75 | < 100 | > 75 | – | – | Cc1ncsc1-c1ccc([C@H](C)NC(=O)[C@@H]2C[C@@H](O)CN2C(=O)[C@@H](c2cc(OCCN3CCC(N4CCN5c6cc(-c7ccccc7O)nnc6NC[C@H]5C4)C(C)C3)no2)C(C)C)cc1 (single isomer, unassigned) [Example 55]
12 | < 100 | > 75 | < 100 | > 75 | – | – | Cc1ncsc1-c1ccc([C@H](C)NC(=O)[C@@H]2C[C@@H](O)CN2C(=O)[C@@H](c2cc(OCCN3CCC(C(C)N4CCN5c6cc(-c7ccccc7O)nnc6NC[C@H]5C4)CC3)no2)C(C)C)cc1 (single isomer, unassigned) [Example 58]
13 | < 100 | – | < 100 | – | – | – | Cc1ncsc1-c1ccc([C@H](C)NC(=O)[C@@H]2C[C@@H](O)CN2C(=O)[C@@H](c2cc(OCCN3CCC(C(C)N4CCN5c6cc(-c7ccccc7O)nnc6NC[C@H]5C4)CC3)no2)C(C)C)cc1 (single isomer, unassigned) [Example 59]
14 | < 100 | > 75 | < 100 | > 75 | – | – | Cc1ncsc1-c1ccc([C@H](C)NC(=O)[C@@H]2C[C@@H](O)CN2C(=O)[C@@H](c2cc(OCCN3CCC(N4CCC(N5CCN6c7cc(-c8ccccc8O)nnc7NC[C@H]6C5)C4)CC3)no2)C(C)C)cc1 (single isomer, unassigned) [Example 69]
15 | < 100 | – | < 100 | – | – | – | Cc1ncsc1-c1ccc([C@H](C)NC(=O)[C@@H]2C[C@@H](O)CN2C(=O)[C@@H](c2cc(OCCN3CCC(N4CCC(N5CCN6c7cc(-c8ccccc8O)nnc7NC[C@H]6C5)C4)CC3)no2)C(C)C)cc1 (single isomer, unassigned) [Example 70]
16 | < 100 | > 75 | < 100 | > 75 | – | – | Cc1ncsc1-c1ccc([C@H](C)NC(=O)[C@@H]2C[C@@H](O)CN2C(=O)[C@@H](c2cc(OCCN3CCCC(CN4CCN5c6cc(-c7ccccc7O)nnc6NC[C@H]5C4)C3)no2)C(C)C)cc1 (single isomer, unassigned) [Example 86]
